Test results from the supplement of paper PMC10307832.

How the values were obtained:
Assay in all cases: relative viability (nuclei count vs DMSO), 5 days (fraction); higher = more cells survive
[1] = system: HARA
In short: (§1)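 Relative viability divides the nuclei count in treated wells by that in vehicle wells. Lung cancer cell lines were seeded in 1536-well plates, dosed by pin tool the next day, and fixed and stained after 5 days in one step with final 0.05% Triton X-100, 1% formaldehyde and 1 ug/ml Hoechst. Dosing was a single drug or a fixed anchor-drug dose plus five library-drug doses (not always all listed) in √10 steps, and values are medians of duplicate plates imaged at 4×.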

[2] = system: 201T
In short: as §1

[3] = system: NCI-H661
In short: as §1

[4] = system: LCLC-103H
In short: as §1

[5] = system: SK-LU-1
In short: as §1

[6] = system: ChaGo-K-1
In short: as §1

[7] = system: H3255
In short: as §1

[8] = system: COR-L 105
In short: as §1

[9] = system: NCI-H1975
In short: as §1

[10] = system: NCI-H3122
In short: as §1

[11] = system: HOP-62
In short: as §1

[12] = system: HCC-827
In short: as §1

[13] = system: NCI-H23
In short: as §1

[14] = system: NCI-H2126
In short: as §1

[15] = system: NCI-H650
In short: as §1

[16] = system: NCI-H2405
In short: as §1

[17] = system: NCI-H596
In short: as §1

[18] = system: PC-3 [JPC-3]
In short: as §1

[19] = system: NCI-H727
In short: as §1

[20] = system: LOU-NH91
In short: as §1

[21] = system: NCI-H2228
In short: as §1

[22] = system: EKVX
In short: as §1

`Cc1cn(-c2cc(NC(=O)c3ccc(C)c(Nc4nccc(-c5cccnc5)n4)c3)cc(C(F)(F)F)c2)cn1` [Nilotinib] + CS(=O)(=O)N1CCN(Cc2cc3nc(-c4cccc5[nH]ncc45)nc(N4CCOCC4)c3s2)CC1 [Pictilisib] (partner 1 µM) was tested, and the relative viability ([1]; first compound 0.001 µM) was 0.445, the relative viability ([1]; first compound 0.003162 µM) was 0.307 and the relative viability ([1]; first compound 0.01 µM) was 0.458. The relative viability ([1]; first compound 0.03162 µM) was 0.197, the relative viability ([1]; first compound 0.1 µM) was 0.186 and the relative viability ([2]; first compound 0.001 µM) was 0.732. For the same compound, the relative viability ([2]; first compound 0.003162 µM) was 0.742, the relative viability ([2]; first compound 0.01 µM) was 0.531 and the relative viability ([2]; first compound 0.1 µM) was 0.459. For the same compound, the relative viability ([3]; first compound 0.001 µM) was 0.396, the relative viability ([3]; first compound 0.003162 µM) was 0.38 and the relative viability ([3]; first compound 0.01 µM) was 0.438. It also gave a relative viability ([3]; first compound 0.03162 µM) of 0.325, a relative viability ([3]; first compound 0.1 µM) of 0.391 and a relative viability ([4]; first compound 0.001 µM) of 0.649. For the same compound, the relative viability ([4]; first compound 0.003162 µM) was 0.638, the relative viability ([4]; first compound 0.03162 µM) was 0.755 and the relative viability ([4]; first compound 0.1 µM) was 0.421. It also gave a relative viability ([5]; first compound 0.001 µM) of 0.499, a relative viability ([5]; first compound 0.003162 µM) of 0.526 and a relative viability ([5]; first compound 0.01 µM) of 0.563. It also gave a relative viability ([5]; first compound 0.03162 µM) of 0.366, a relative viability ([5]; first compound 0.1 µM) of 0.499 and a relative viability ([6]; first compound 0.001 µM) of 1.22. It also gave a relative viability ([6]; first compound 0.003162 µM) of 0.581, a relative viability ([6]; first compound 0.01 µM) of 0.654 and a relative viability ([6]; first compound 0.03162 µM) of 0.315. It also gave a relative viability ([6]; first compound 0.1 µM) of 0.444, a relative viability ([7]; first compound 0.001 µM) of 0.44 and a relative viability ([7]; first compound 0.003162 µM) of 0.438. For the same compound, the relative viability ([7]; first compound 0.01 µM) was 0.57, the relative viability ([7]; first compound 0.03162 µM) was 0.416 and the relative viability ([7]; first compound 0.1 µM) was 0.441. It also gave a relative viability ([8]; first compound 0.001 µM) of 0.435, a relative viability ([8]; first compound 0.01 µM) of 0.407 and a relative viability ([8]; first compound 0.03162 µM) of 0.437. For the same compound, the relative viability ([8]; first compound 0.1 µM) was 0.331, the relative viability ([9]; first compound 0.001 µM) was 0.299 and the relative viability ([9]; first compound 0.003162 µM) was 0.358. It also gave a relative viability ([9]; first compound 0.01 µM) of 0.231, a relative viability ([9]; first compound 0.03162 µM) of 0.312 and a relative viability ([9]; first compound 0.1 µM) of 0.19. For the same compound, the relative viability ([10]; first compound 0.001 µM) was 0.666, the relative viability ([10]; first compound 0.003162 µM) was 0.846 and the relative viability ([10]; first compound 0.01 µM) was 0.808. The relative viability ([10]; first compound 0.03162 µM) was 0.473, the relative viability ([10]; first compound 0.1 µM) was 0.436 and the relative viability ([11]; first compound 0.001 µM) was 0.539. The relative viability ([11]; first compound 0.003162 µM) was 0.902, the relative viability ([11]; first compound 0.01 µM) was 0.587 and the relative viability ([11]; first compound 0.03162 µM) was 0.63. The relative viability ([11]; first compound 0.1 µM) was 0.401, the relative viability ([12]; first compound 0.001 µM) was 0.685 and the relative viability ([12]; first compound 0.003162 µM) was 0.985. The relative viability ([12]; first compound 0.01 µM) was 1.15, the relative viability ([12]; first compound 0.03162 µM) was 0.829 and the relative viability ([12]; first compound 0.1 µM) was 0.965. For the same compound, the relative viability ([13]; first compound 0.001 µM) was 0.411, the relative viability ([13]; first compound 0.003162 µM) was 0.498 and the relative viability ([13]; first compound 0.01 µM) was 0.546. It also gave a relative viability ([13]; first compound 0.03162 µM) of 0.348, a relative viability ([13]; first compound 0.1 µM) of 0.403 and a relative viability ([14]; first compound 0.001 µM) of 0.494. The relative viability ([14]; first compound 0.003162 µM) was 0.501, the relative viability ([14]; first compound 0.01 µM) was 0.393 and the relative viability ([14]; first compound 0.03162 µM) was 0.546. The relative viability ([14]; first compound 0.1 µM) was 0.378, the relative viability ([15]; first compound 0.001 µM) was 0.817 and the relative viability ([15]; first compound 0.003162 µM) was 0.775. For the same compound, the relative viability ([15]; first compound 0.01 µM) was 0.841, the relative viability ([15]; first compound 0.03162 µM) was 0.853 and the relative viability ([15]; first compound 0.1 µM) was 0.767. It also gave a relative viability ([16]; first compound 0.001 µM) of 0.426, a relative viability ([16]; first compound 0.003162 µM) of 0.404 and a relative viability ([16]; first compound 0.01 µM) of 0.315. It also gave a relative viability ([16]; first compound 0.03162 µM) of 0.296, a relative viability ([16]; first compound 0.1 µM) of 0.345 and a relative viability ([17]; first compound 0.001 µM) of 0.352. The relative viability ([17]; first compound 0.003162 µM) was 0.41, the relative viability ([17]; first compound 0.01 µM) was 0.386 and the relative viability ([17]; first compound 0.03162 µM) was 0.393. The relative viability ([17]; first compound 0.1 µM) was 0.366, the relative viability ([18]; first compound 0.001 µM) was 0.791 and the relative viability ([18]; first compound 0.003162 µM) was 0.88. It also gave a relative viability ([18]; first compound 0.01 µM) of 0.833, a relative viability ([18]; first compound 0.03162 µM) of 0.747 and a relative viability ([18]; first compound 0.1 µM) of 0.342. It also gave a relative viability ([19]; first compound 0.001 µM) of 0.382, a relative viability ([19]; first compound 0.01 µM) of 0.447 and a relative viability ([19]; first compound 0.1 µM) of 0.264. It also gave a relative viability ([20]; first compound 0.001 µM) of 0.548, a relative viability ([20]; first compound 0.003162 µM) of 0.537 and a relative viability ([20]; first compound 0.01 µM) of 0.543. The relative viability ([20]; first compound 0.03162 µM) was 0.483, the relative viability ([20]; first compound 0.1 µM) was 0.54 and the relative viability ([21]; first compound 0.001 µM) was 0.27. The relative viability ([21]; first compound 0.003162 µM) was 0.402, the relative viability ([21]; first compound 0.01 µM) was 0.31 and the relative viability ([21]; first compound 0.03162 µM) was 0.356. The relative viability ([21]; first compound 0.1 µM) was 0.397, the relative viability ([22]; first compound 0.001 µM) was 0.486 and the relative viability ([22]; first compound 0.003162 µM) was 0.588. The relative viability ([22]; first compound 0.01 µM) was 0.531, the relative viability ([22]; first compound 0.03162 µM) was 0.344 and the relative viability ([22]; first compound 0.1 µM) was 0.552.
